Data taken from PubChem BioAssay AID1919010 (Molecular Pharmacology Branch, DTP, NCI, 2023).

System: Hs578T complex spheroid growth, percent test/control
Assay: Anticancer human tumor Hs578T cell line growth inhibition [AhR];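 also: luminescent viability signal as a proxy for spheroid growth; spheroids exposed to agents for one week after three days of growth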
Details: for IC50: curve of first compound; for viability, T/C: stronger effect = lower value
Summary of the method: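 Complex tumor spheroids co-cultured with HUVEC and human MSC stroma; AhR antagonists tested in combination with standard-of-care and investigational agents. Top concentration at or near clinical Cmax (else 10 microM), half-log dilutions; growth expressed as percent test/control.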

[1] = second compound 0.1 µM, first compound 0.00949 µM
[2] = second compound 0.1 µM, first compound 0.03 µM
[3] = second compound 0.1 µM, first compound 0.0949 µM
[4] = second compound 0.1 µM, first compound 0.3 µM
[5] = second compound 0.316 µM, first compound 0.00949 µM
[6] = second compound 0.316 µM, first compound 0.03 µM
[7] = second compound 0.316 µM, first compound 0.0949 µM
[8] = second compound 0.316 µM, first compound 0.3 µM
[9] = second compound 1 µM, first compound 0.00949 µM
[10] = second compound 1 µM, first compound 0.03 µM
[11] = second compound 1 µM, first compound 0.0949 µM
[12] = second compound 1 µM, first compound 0.3 µM
[13] = second compound 3.16 µM, first compound 0.00949 µM
[14] = second compound 3.16 µM, first compound 0.03 µM
[15] = second compound 3.16 µM, first compound 0.0949 µM
[16] = second compound 3.16 µM, first compound 0.3 µM
[17] = second compound 10 µM, first compound 0.00949 µM
[18] = second compound 10 µM, first compound 0.03 µM
[19] = second compound 10 µM, first compound 0.0949 µM
[20] = second compound 10 µM, first compound 0.3 µM

With `CC1COCCN1c1cc(C2(S(C)(=N)=O)CC2)nc(-c2ccnc3[nH]ccc23)n1` (stereo not given) + Cc1cncc(-c2nc(NCCc3c[nH]c4ccccc34)c3ncn(C(C)C)c3n2)c1 the IC50 (second compound 0.1 µM) was > 10000 nM, the IC50 (second compound 0.316 µM) was > 10000 nM and the IC50 (second compound 1 µM) was > 10000 nM. The IC50 (second compound 3.16 µM) was > 10000 nM, the IC50 (second compound 10 µM) was < 31.6 nM and the viability, T/C (second compound 0.1 µM, first compound 0.0316 µM) was 120%. For the same compound, the viability, T/C (second compound 0.1 µM, first compound 0.1 µM) was 115%, the viability, T/C (second compound 0.1 µM, first compound 0.316 µM) was 111% and the viability, T/C (second compound 0.1 µM, first compound 1 µM) was 102%. It also gave a viability, T/C (second compound 0.1 µM, first compound 3.16 µM) of 92.1%, a viability, T/C (second compound 0.1 µM, first compound 10 µM) of 66.2% and a viability, T/C (second compound 0.316 µM, first compound 0.0316 µM) of 119%. The viability, T/C (second compound 0.316 µM, first compound 0.1 µM) was 119%, the viability, T/C (second compound 0.316 µM, first compound 0.316 µM) was 116% and the viability, T/C (second compound 0.316 µM, first compound 1 µM) was 113%. It also gave a viability, T/C (second compound 0.316 µM, first compound 3.16 µM) of 105%, a viability, T/C (second compound 0.316 µM, first compound 10 µM) of 60.4% and a viability, T/C (second compound 1 µM, first compound 0.0316 µM) of 106%. For the same compound, the viability, T/C (second compound 1 µM, first compound 0.1 µM) was 107%, the viability, T/C (second compound 1 µM, first compound 0.316 µM) was 118% and the viability, T/C (second compound 1 µM, first compound 1 µM) was 111%. The viability, T/C (second compound 1 µM, first compound 3.16 µM) was 98.2%, the viability, T/C (second compound 1 µM, first compound 10 µM) was 62.5% and the viability, T/C (second compound 3.16 µM, first compound 0.0316 µM) was 62.5%. It also gave a viability, T/C (second compound 3.16 µM, first compound 0.1 µM) of 57.2%, a viability, T/C (second compound 3.16 µM, first compound 0.316 µM) of 59.1% and a viability, T/C (second compound 3.16 µM, first compound 1 µM) of 64.5%. For the same compound, the viability, T/C (second compound 3.16 µM, first compound 3.16 µM) was 55.3%, the viability, T/C (second compound 3.16 µM, first compound 10 µM) was 43.3% and the viability, T/C (second compound 10 µM, first compound 0.0316 µM) was 8.31%. The viability, T/C (second compound 10 µM, first compound 0.1 µM) was 8.78%, the viability, T/C (second compound 10 µM, first compound 0.316 µM) was 9.14% and the viability, T/C (second compound 10 µM, first compound 1 µM) was 8%. It also gave a viability, T/C (second compound 10 µM, first compound 3.16 µM) of 9.08% and a viability, T/C (second compound 10 µM, first compound 10 µM) of 11.8%.

For `Nc1ncn(C2CC(O)C(CO)S2)c(=O)n1` (stereo not given) + Cc1cncc(-c2nc(NCCc3c[nH]c4ccccc34)c3ncn(C(C)C)c3n2)c1, the IC50 (second compound 0.1 µM) was > 300 nM, the IC50 (second compound 0.316 µM) was > 300 nM and the IC50 (second compound 1 µM) was > 300 nM. The IC50 (second compound 3.16 µM) was > 300 nM, the IC50 (second compound 10 µM) was < 0.949 nM and the viability, T/C (second compound 0.1 µM, first compound 0.000949 µM) was 110%. The viability, T/C (second compound 0.1 µM, first compound 0.003 µM) was 119%, the viability, T/C [1] was 117% and the viability, T/C [2] was 108%. For the same compound, the viability, T/C [3] was 104%, the viability, T/C [4] was 92.9% and the viability, T/C (second compound 0.316 µM, first compound 0.000949 µM) was 116%. The viability, T/C (second compound 0.316 µM, first compound 0.003 µM) was 114%, the viability, T/C [5] was 115% and the viability, T/C [6] was 107%. The viability, T/C [7] was 108%, the viability, T/C [8] was 93.9% and the viability, T/C (second compound 1 µM, first compound 0.000949 µM) was 92.2%. For the same compound, the viability, T/C (second compound 1 µM, first compound 0.003 µM) was 95.3%, the viability, T/C [9] was 91% and the viability, T/C [10] was 82.4%. The viability, T/C [11] was 88.8%, the viability, T/C [12] was 86.4% and the viability, T/C (second compound 3.16 µM, first compound 0.000949 µM) was 46.2%. The viability, T/C (second compound 3.16 µM, first compound 0.003 µM) was 54.2%, the viability, T/C [13] was 55.5% and the viability, T/C [14] was 49.4%. It also gave a viability, T/C [15] of 47%, a viability, T/C [16] of 55% and a viability, T/C (second compound 10 µM, first compound 0.000949 µM) of 14.1%. It also gave a viability, T/C (second compound 10 µM, first compound 0.003 µM) of 7.61%, a viability, T/C [17] of 7.86% and a viability, T/C [18] of 8.27%. It also gave a viability, T/C [19] of 7.59% and a viability, T/C [20] of 7.47%.

Work on `O=C(C=Cn1cnc(-c2cc(C(F)(F)F)cc(C(F)(F)F)c2)n1)NNc1cnccn1` + Cc1cncc(-c2nc(NCCc3c[nH]c4ccccc34)c3ncn(C(C)C)c3n2)c1 yielded an IC50 (second compound 0.1 µM) of 402 nM, an IC50 (second compound 0.316 µM) of 352 nM and an IC50 (second compound 1 µM) of 346 nM. For the same compound, the IC50 (second compound 3.16 µM) was 148 nM, the IC50 (second compound 10 µM) was < 9.49 nM and the viability, T/C [1] was 113%. For the same compound, the viability, T/C [2] was 100%, the viability, T/C [3] was 93.7% and the viability, T/C [4] was 61.6%. The viability, T/C (second compound 0.1 µM, first compound 0.949 µM) was 19.2%, the viability, T/C (second compound 0.1 µM, first compound 3 µM) was 19.4% and the viability, T/C [5] was 110%. For the same compound, the viability, T/C [6] was 110%, the viability, T/C [7] was 96.4% and the viability, T/C [8] was 55%. For the same compound, the viability, T/C (second compound 0.316 µM, first compound 0.949 µM) was 21.9%, the viability, T/C (second compound 0.316 µM, first compound 3 µM) was 19.1% and the viability, T/C [9] was 101%. For the same compound, the viability, T/C [10] was 103%, the viability, T/C [11] was 93.2% and the viability, T/C [12] was 55.3%. The viability, T/C (second compound 1 µM, first compound 0.949 µM) was 17.2%, the viability, T/C (second compound 1 µM, first compound 3 µM) was 19.2% and the viability, T/C [13] was 84.6%. The viability, T/C [14] was 71.6%, the viability, T/C [15] was 59.4% and the viability, T/C [16] was 39%. The viability, T/C (second compound 3.16 µM, first compound 0.949 µM) was 16%, the viability, T/C (second compound 3.16 µM, first compound 3 µM) was 14.6% and the viability, T/C [17] was 6.63%. For the same compound, the viability, T/C [18] was 4.78%, the viability, T/C [19] was 2.83% and the viability, T/C [20] was 1.17%. For the same compound, the viability, T/C (second compound 10 µM, first compound 0.949 µM) was 1.46% and the viability, T/C (second compound 10 µM, first compound 3 µM) was 1.56%.
